Results from patent US9328122B2, “7-substituted Hanfangichin B derivative, and preparation method and use thereof” (HANGZHOU BENSHENG PHARMACEUTICAL CO., LTD., priority 2012, dated 2016).
In brackets after ≈: the same amount, converted by molar mass.

Tests used:
[1] = test system: RPMI 8226 (multiple myeloma) cells; assay: MTT cell growth inhibition, multiple myeloma cells; type: cell-based, human; settings: Homo sapiens, RPMI 8226, 72 h, MTT
Description: Myeloma cell lines: RPMI8226 (multiple myeloma), purchased from Fuxiang Bio-tech Co. Ltd., Shanghai, China.
(§1) 6000 well-growing cells were obtained and inoculated into wells of a 96-well cell culture plate. The culture medium was a RPMI-1640 cell culture medium containing 10% fetal bovine serum. After adding the 7-substituted fangchinoline derivatives of different concentrations the next day and mixing uniformly, the plate was placed in a carbon dioxide cell incubator (5% CO2) at 37° C. and incubated for 72 hours. Then the viable cell concentration was determined by the MTT method.

[2] = test system: U87-MG (malignant glioma) cells; assay: MTT cell growth inhibition, solid tumor cells; type: cell-based; settings: Homo sapiens, U-87 MG, U87-MG, 72 h, MTT
Text: (§2) Hep-2 (laryngeal carcinoma), A549 (human lung cancer), CaES-17 (esophageal cancer cell), PC-3 (prostate cancer), CNE (nasopharyngeal carcinoma cell) and SK-OV-3 (ovarian cancer cell), all of which were purchased from China Center For Type Culture Collection; RKO (human colon adenocarcinoma cell), MGC-803 (human gastric cancer cell), MG-63 (osteosarcoma), and U87-MG (malignant glioma cell), all of which were purchased from Fuxiang Bio-tech Co. Ltd., Shanghai, China; PANC-1 (pancreatic cancer), Becap37 (human breast cancer cell), Hela (human cervical cancer cell) and Hep G2 (human liver cancer cell), all of which were donated by Cancer Research Institute of Zhejiang University, China.
as §1, with “well-growing human solid tumor” for “well-growing”, “DMEM High Glucose” for “a RPMI-1640”, “serum. The plate was placed in a carbon dioxide cell incubator (5% CO2) at 37° C. and incubated for 24 hours.” for “serum.”, “added with” for “adding the”, “concentration” for “concentrations the next day”

[3] = test system: Hep G2 (human liver cancer) cells; assay: MTT cell growth inhibition, solid tumor cells; type: cell-based; settings: Homo sapiens, HepG2, Hep G2, 72 h, MTT
Text: as §2
as §1, with “well-growing human solid tumor” for “well-growing”, “DMEM High Glucose” for “a RPMI-1640”, “serum. The plate was placed in a carbon dioxide cell incubator (5% CO2) at 37° C. and incubated for 24 hours.” for “serum.”, “added with” for “adding the”, “concentration” for “concentrations the next day”

[4] = test system: RKO (human colon adenocarcinoma) cells; assay: MTT cell growth inhibition, solid tumor cells; type: cell-based; settings: Homo sapiens, RKO, 72 h, MTT
Text: as §2
as §1, with “well-growing human solid tumor” for “well-growing”, “DMEM High Glucose” for “a RPMI-1640”, “serum. The plate was placed in a carbon dioxide cell incubator (5% CO2) at 37° C. and incubated for 24 hours.” for “serum.”, “added with” for “adding the”, “concentration” for “concentrations the next day”

[5] = test system: A549 (human lung cancer) cells; assay: MTT cell growth inhibition, solid tumor cells; type: cell-based; settings: Homo sapiens, A549, 72 h, MTT
Text: as §2
as §1, with “well-growing human solid tumor” for “well-growing”, “DMEM High Glucose” for “a RPMI-1640”, “serum. The plate was placed in a carbon dioxide cell incubator (5% CO2) at 37° C. and incubated for 24 hours.” for “serum.”, “added with” for “adding the”, “concentration” for “concentrations the next day”

[6] = test system: MG-63 (osteosarcoma) cells; assay: MTT cell growth inhibition, solid tumor cells; type: cell-based; settings: Homo sapiens, MG-63, 72 h, MTT
Text: as §2
as §1, with “well-growing human solid tumor” for “well-growing”, “DMEM High Glucose” for “a RPMI-1640”, “serum. The plate was placed in a carbon dioxide cell incubator (5% CO2) at 37° C. and incubated for 24 hours.” for “serum.”, “added with” for “adding the”, “concentration” for “concentrations the next day”

[7] = test system: MGC-803 (human gastric cancer) cells; assay: MTT cell growth inhibition, solid tumor cells; type: cell-based; settings: MGC-803, 72 h, MTT
Text: as §2
as §1, with “well-growing human solid tumor” for “well-growing”, “DMEM High Glucose” for “a RPMI-1640”, “serum. The plate was placed in a carbon dioxide cell incubator (5% CO2) at 37° C. and incubated for 24 hours.” for “serum.”, “added with” for “adding the”, “concentration” for “concentrations the next day”

[8] = test system: Hep-2 (laryngeal carcinoma) cells; assay: MTT cell growth inhibition, solid tumor cells; type: cell-based; settings: Homo sapiens, Hep-2, 72 h, MTT
Text: as §2
as §1, with “well-growing human solid tumor” for “well-growing”, “DMEM High Glucose” for “a RPMI-1640”, “serum. The plate was placed in a carbon dioxide cell incubator (5% CO2) at 37° C. and incubated for 24 hours.” for “serum.”, “added with” for “adding the”, “concentration” for “concentrations the next day”

[9] = test system: Becap-37 (human breast cancer) cells; assay: MTT cell growth inhibition, solid tumor cells; type: cell-based; settings: Homo sapiens, Becap-37, 72 h, MTT
Text: as §2
as §1, with “well-growing human solid tumor” for “well-growing”, “DMEM High Glucose” for “a RPMI-1640”, “serum. The plate was placed in a carbon dioxide cell incubator (5% CO2) at 37° C. and incubated for 24 hours.” for “serum.”, “added with” for “adding the”, “concentration” for “concentrations the next day”

[10] = test system: Hela (human cervical cancer) cells; assay: MTT cell growth inhibition, solid tumor cells; type: cell-based; settings: Homo sapiens, Hela, 72 h, MTT
Text: as §2
as §1, with “well-growing human solid tumor” for “well-growing”, “DMEM High Glucose” for “a RPMI-1640”, “serum. The plate was placed in a carbon dioxide cell incubator (5% CO2) at 37° C. and incubated for 24 hours.” for “serum.”, “added with” for “adding the”, “concentration” for “concentrations the next day”

[11] = test system: Kasumi-1 (acute myeloid leukemia M2 type) cells; assay: MTT cell growth inhibition, leukemia cells; type: cell-based, human; settings: Homo sapiens, Kasumi-1, 72 h, MTT
Text: (§3) Leukemia cell lines: leukemia cell lines: K562adr (drug-resistant, chronic myeloid leukemia, CML), NB4 (acute promyelocytic leukemia, AML), Kasumi-1 (acute myeloid leukemia M2 type, AML-M2), Jurkat (acute lymphoblastic leukemia, ALL), all of which were donated by Cancer Research Institute of Zhejiang University, China; and H9 (acute lymphoblastic leukemia, ALL), which was purchased from China Center for Type Culture Collection.
(§4) Reagents: The standard sample of fangchinoline (FAN) was purchased from Ci Yuan Biotechnology Co., Ltd., Shaanxi, China; and the 7-substituted fangchinoline derivatives according to the present invention.
as §1, with “well-growing leukemia” for “well-growing”, “incubating” for “incubated”

[12] = test system: Jurkat (acute lymphoblastic leukemia) cells; assay: MTT cell growth inhibition, leukemia cells; type: cell-based, human; settings: Homo sapiens, Jurkat, 72 h, MTT
Text: as §3, §4
as §1, with “well-growing leukemia” for “well-growing”, “incubating” for “incubated”

[13] = test system: CNE (nasopharyngeal carcinoma) cells; assay: MTT cell growth inhibition, solid tumor cells; type: cell-based, human; settings: Homo sapiens, CNE, 72 h, MTT
Text: as §2
as §1, with “well-growing human solid tumor” for “well-growing”, “DMEM High Glucose” for “a RPMI-1640”, “serum. The plate was placed in a carbon dioxide cell incubator (5% CO2) at 37° C. and incubated for 24 hours.” for “serum.”, “added with” for “adding the”, “concentration” for “concentrations the next day”

[14] = test system: PC-3 (prostate cancer) cells; assay: MTT cell growth inhibition, solid tumor cells; type: cell-based, human; settings: Homo sapiens, PC-3, 72 h, MTT
Text: as §2
as §1, with “well-growing human solid tumor” for “well-growing”, “DMEM High Glucose” for “a RPMI-1640”, “serum. The plate was placed in a carbon dioxide cell incubator (5% CO2) at 37° C. and incubated for 24 hours.” for “serum.”, “added with” for “adding the”, “concentration” for “concentrations the next day”

[15] = test system: SK-OV-3 (ovarian cancer) cells; assay: MTT cell growth inhibition, solid tumor cells; type: cell-based, human; settings: Homo sapiens, SK-OV-3, 72 h, MTT
Text: as §2
as §1, with “well-growing human solid tumor” for “well-growing”, “DMEM High Glucose” for “a RPMI-1640”, “serum. The plate was placed in a carbon dioxide cell incubator (5% CO2) at 37° C. and incubated for 24 hours.” for “serum.”, “added with” for “adding the”, “concentration” for “concentrations the next day”

[16] = test system: CaEs-17 (esophageal cancer) cells; assay: MTT cell growth inhibition, solid tumor cells; type: cell-based, human; settings: Homo sapiens, CaEs17, CaEs-17, 72 h, MTT
Text: as §2
as §1, with “well-growing human solid tumor” for “well-growing”, “DMEM High Glucose” for “a RPMI-1640”, “serum. The plate was placed in a carbon dioxide cell incubator (5% CO2) at 37° C. and incubated for 24 hours.” for “serum.”, “added with” for “adding the”, “concentration” for “concentrations the next day”

[17] = test system: PANC-1 (pancreatic cancer) cells; assay: MTT cell growth inhibition, solid tumor cells; type: cell-based, human; settings: Homo sapiens, PANC-1, 72 h, MTT
Text: as §2
as §1, with “well-growing human solid tumor” for “well-growing”, “DMEM High Glucose” for “a RPMI-1640”, “serum. The plate was placed in a carbon dioxide cell incubator (5% CO2) at 37° C. and incubated for 24 hours.” for “serum.”, “added with” for “adding the”, “concentration” for “concentrations the next day”

tumor = assay: Antitumor activity compared with fangchinoline, overall statement; type: cell-based; settings: tumor type not specified

IC50 ([1]; read-out: IC50): 0.04 µg/mL (≈ 0.0544 µM)
IC90 ([1]; read-out: IC90): 0.5 µg/mL (≈ 0.679 µM)
IC50 ([2]; read-out: IC50): 1.07 µg/mL (≈ 1.45 µM)
IC90 ([2]; read-out: IC90): 2.68 µg/mL (≈ 3.64 µM)
IC50 ([3]; read-out: IC50): 1.27 µg/mL (≈ 1.73 µM)
IC90 ([3]; read-out: IC90): 3.24 µg/mL (≈ 4.4 µM)
IC50 ([4]; read-out: IC50): 0.65 µg/mL (≈ 0.883 µM)
IC90 ([4]; read-out: IC90): 1.27 µg/mL (≈ 1.73 µM)
IC50 ([5]; read-out: IC50): 2.98 µg/mL (≈ 4.05 µM)
IC90 ([5]; read-out: IC90): 8.43 µg/mL (≈ 11.5 µM)
IC50 ([6]; read-out: IC50): 1.1 µg/mL (≈ 1.49 µM)
IC90 ([6]; read-out: IC90): 1.99 µg/mL (≈ 2.7 µM)
IC50 ([7]; read-out: IC50): 0.94 µg/mL (≈ 1.28 µM)
IC90 ([7]; read-out: IC90): 16 µg/mL (≈ 21.7 µM)
IC50 ([8]; read-out: IC50): 1.79 µg/mL (≈ 2.43 µM)
IC90 ([8]; read-out: IC90): 5.54 µg/mL (≈ 7.53 µM)
IC50 ([9]; read-out: IC50): 1.44 µg/mL (≈ 1.96 µM)
IC90 ([9]; read-out: IC90): 4.8 µg/mL (≈ 6.52 µM)
IC50 ([10]; read-out: IC50): 1.05 µg/mL (≈ 1.43 µM)
IC90 ([10]; read-out: IC90): 3.52 µg/mL (≈ 4.78 µM)
IC50 ([11]; read-out: IC50): 1.46 µg/mL (≈ 1.98 µM)
IC90 ([11]; read-out: IC90): 4.82 µg/mL (≈ 6.55 µM)
IC50 ([12]; read-out: IC50): 1.02 µg/mL (≈ 1.39 µM)
IC90 ([12]; read-out: IC90): 3.33 µg/mL (≈ 4.52 µM)
IC50 ([13]; read-out: IC50): 0.95 µg/mL (≈ 1.29 µM)
IC90 ([13]; read-out: IC90): 3.94 µg/mL (≈ 5.35 µM)
IC50 ([14]; read-out: IC50): 2.89 µg/mL (≈ 3.93 µM)
IC90 ([14]; read-out: IC90): 5.8 µg/mL (≈ 7.88 µM)
IC50 ([15]; read-out: IC50): 2.82 µg/mL (≈ 3.83 µM)
IC90 ([15]; read-out: IC90): 9.85 µg/mL (≈ 13.4 µM)
IC50 ([16]; read-out: IC50): 0.91 µg/mL (≈ 1.24 µM)
IC90 ([16]; read-out: IC90): 4.9 µg/mL (≈ 6.66 µM)
IC50 ([17]; read-out: IC50): 3.17 µg/mL (≈ 4.31 µM)
IC90 ([17]; read-out: IC90): 7.14 µg/mL (≈ 9.7 µM)
Structure (SMILES): C=CCN(C)CC(O)COc1c(OC)cc2c3c1Oc1cc4c(cc1OC)CCN(C)[C@H]4Cc1ccc(cc1)Oc1cc(ccc1OC)C[C@@H]3N(C)CC2 (some centres unmarked) [BS-FC-409]
antitumor activity compared with that of fangchinoline (tumor): significantly superior
